In one experiment the test system is Rat white adipocytes. The experiment is described as follows: Stimulation of differentiation of the adipocytes (Oil Red O). Conditions: 100 nM test compound, 5 days, Oil Red O ABS550, control = 100%, blank = 0%, Table 7; for activity at 0.1 µM: Rattus norvegicus, Adipocyte, 120 h, read-out: Rate of Differentiation (%). Format: cell-based. The essentials: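 Oil Red O lipid staining, absorbance 550 nm after DMSO extraction, quantified differentiation of rat white adipocytes exposed 5 days to compound (final 100 nM, 0.1% DMSO) in differentiation medium. Percent differentiation normalised between cell-free blank (0%) and DMSO control (100%).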

The next experiment deals with TNF-α production. The experiment is described as follows: Inhibitory activity against cytokine (TNF-α) production in LPS-stimulated RAW264.7 cells. Format: cell-based, mouse. The conditions noted are these: 1 μM test compound, LPS 10 ng/mL; for inhibition at 1 µM: Mus musculus. The essentials:
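Mouse RAW264.7 macrophages (5,000 cells/well) stimulated with 10 ng/mL LPS (final) and treated with test compound at 1 μM final for 15 h at 37 °C. Supernatant mouse TNF-α measured by ELISA; % inhibition = 100−(A−B)/(C−B)×100, using unstimulated and LPS-only controls.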

The values that follow come from patent US20030134859A1 (SANKYO COMPANY, LIMITED, priority 2000, published 2003).

Structures can show the parent of a compound that is named as a salt.

As to `Cc1ccc(S(=O)(=O)Nc2ccc(NC(=O)c3cc([N+](=O)[O-])ccc3Cl)cc2)cc1` [Example 32, N-[4-(4-Methylbenzene)sulfonylaminophenyl]-(2-chloro-5-nitrophenyl)carboxamide], the “Rate of Differentiation (%)” value in the experiment with Rat white adipocytes amounted to 114.6%. Besides, the “Inhibitory Activity (%) against TNF-α production” value (from here on “Inhibitory Activity (%)”) in the experiment with TNF-α production (15 hr) is listed as 19.8%. As to `O=C(Nc1ccc(N2CCCCC2)cc1)c1cc([N+](=O)[O-])ccc1Cl` [Example 114, N-[4-(Piperidin-1-yl)phenyl]-(2-chloro-5-nitrophenyl)carboxamide], the activity at 0.1 µM with Rat white adipocytes stood at 118%. The compound further displayed an inhibition at 1 µM in the experiment with TNF-α production (RAW264.7, 15 h) of 16.8%. On the same counts, the results for `O=C(Nc1ccc(OC(F)(F)F)cc1)c1cc([N+](=O)[O-])ccc1Cl` [Example 18, N-(4-Trifluoromethyloxyphenyl)-(2-chloro-5-nitrophenyl)carboxamide] are 115% and 16.8%. `CCc1ccc(S(=O)(=O)Nc2ccc(NC(=O)c3cc([N+](=O)[O-])ccc3Cl)cc2)cc1` [Example 150, N-[4-(4-Ethylbenzenesulfonylamino)phenyl]-(2-chloro-5-nitrophenyl)carboxamide]: the activity at 0.1 µM with Rat white adipocytes worked out at 137%. For the same compound, the inhibition at 1 µM in the experiment on TNF-α production (RAW264.7, 15 h) is 16.2%.

With `CCCN(CCC)c1ccc(NC(=O)c2cc([N+](=O)[O-])ccc2Cl)cc1` [Example 182, N-[4-(N,N-Dipropylamino)phenyl]-(2-chloro-5-nitrophenyl)carboxamide], in the experiment with Rat white adipocytes, the activity at 0.1 µM was 122%. This compound also gave an inhibition at 1 µM with TNF-α production (RAW264.7, 15 h) of 32.8%. For the compound `O=C(Nc1nc(-c2cccs2)cs1)c1cc([N+](=O)[O-])ccc1Cl` [Example 36, N-[4-(2-Thienyl)thiazol-2-yl)-(2-chloro-5-nitrophenyl)carboxamide], the activity at 0.1 µM with Rat white adipocytes worked out at 111%. For the same compound, the inhibition at 1 µM in the experiment on TNF-α production (RAW264.7, 15 h) worked out at 18%. `CCCCCCN(CC)c1ccc(NC(=O)c2cc([N+](=O)[O-])ccc2Cl)cc1` [Example 188, N-[4-(N-Ethyl-N-hexylamino)phenyl]-(2-chloro-55 nitrophenyl)carboxamide]: in the experiment on TNF-α production (RAW264.7, 15 h), the inhibition at 1 µM is 24.2%.

Regarding `CCCCNc1ccc(-c2ccc(NC(=O)c3cc([N+](=O)[O-])ccc3Cl)cc2)cc1` [Example 203, N-[4-[4-(N-Butylamiino)phenyl]phenyl]-(2-chloro-5-nitrophenyl)carboxamide], in the experiment with TNF-α production (15 hr), the “Inhibitory Activity (%)” value worked out at 27.1%.

The compound `CS(=O)(=O)Nc1ccc(-c2ccc(NC(=O)c3cc([N+](=O)[O-])ccc3Cl)cc2)cc1` [Example 93, N-[4-[4-(Methanesulfonylamino)phenyl]phenyl]-(2-chloro-5-nitrophenyl)carboxamide] yielded an inhibition at 1 µM in the experiment on TNF-α production (RAW264.7, 15 h) of 15.6%. For `CC(C)(C)c1cc(NS(=O)(=O)c2ccc(NC(=O)c3cc([N+](=O)[O-])ccc3Cl)cc2)cc(C(C)(C)C)c1O` [Example 175, N-[4-[(3,5-di-tert-Butyl-4-hydroxyphenyl)aminosulfonyl]phenyl]-(2-chloro-5-nitrophenyl)carboxamide], the activity at 0.1 µM in the experiment with Rat white adipocytes is 114%. This compound also displayed an inhibition at 1 µM with TNF-α production (RAW264.7, 15 h) of 15.7%. With `O=C(Nc1nc(-c2ccc([N+](=O)[O-])cc2)cs1)c1cc([N+](=O)[O-])ccc1Cl` [Example 246, N-[4-(4-Nitrophenyl)thiazol-2-yl]-(2-chloro-5-nitrophenyl)carboxamide], in the experiment on Rat white adipocytes, the activity at 0.1 µM was found to be 120%. In the experiment with TNF-α production (15 hr), this compound returned an inhibition at 1 µM of 18%. The compound `O=C(Nc1ccc(-c2ccc(NC(=O)c3cc([N+](=O)[O-])ccc3Cl)cc2)cc1)Nc1ccccc1[N+](=O)[O-]` [Example 254, N-[4-[4-(2-Nitrophenylaminocarbonylamino)phenyl]phenyl]-(2-chloro-5-nitrophenyl)carboxamide] showed an inhibition at 1 µM in the experiment with TNF-α production (15 hr) of 44.3%. `CC(=O)Nc1ccc(-c2ccc(NC(=O)c3cc([N+](=O)[O-])ccc3Cl)cc2)cc1` [Example 118, N-[4-(4-Acetylaminophenyl)phenyl]-(2-chloro-5-nitrophenyl)carboxamide] came in with an inhibition at 1 µM with TNF-α production (RAW264.7, 15 h) of 16.4%.

Take `CCCCN(CC)c1ccc(-c2ccc(NC(=O)c3cc([N+](=O)[O-])ccc3Cl)cc2)cc1` [Example 209, N-[4-[4-(N-Butyl-N-ethylamino)phenyl]phenyl]-(2-chloro-5-nitrophenyl)carboxamide]: testing at 1 µM in the experiment with TNF-α production (RAW264.7, 15 h) gave an inhibition of 26.9%.

`O=C(Nc1ccc([N+](=O)[O-])cn1)c1cc([N+](=O)[O-])ccc1Cl` [Example 24, N-(5-Nitropyridin-2-yl)-(2-chloro-5-nitrophenyl)carboxamide] gave an inhibition at 1 µM in the experiment with TNF-α production (15 hr) of 30.1%. Compound `Nc1ccc(-c2ccc(NC(=O)c3cc([N+](=O)[O-])ccc3Cl)cc2)cc1` [Example 88, N-[4-(4-Aminophenyl)phenyl]-(2-chloro-5-nitrophenyl)carboxamide mono-hydrochloride] displayed an inhibition at 1 µM in the experiment with TNF-α production (RAW264.7, 15 h) of 28%. With `CCN(CC)c1ccc(-c2ccc(NC(=O)c3cc([N+](=O)[O-])ccc3Cl)cc2)cc1` [Example 217, N-[4-[4-(N,N-Diethylamino)phenyl]phenyl]-(2-chloro-5-nitrophenyl)carboxamide], the inhibition at 1 µM with TNF-α production (RAW264.7, 15 h) is 28.7%.

In the experiment with TNF-α production (RAW264.7, 15 h), `O=C(Nc1ccc(N2CCN(C(=O)c3ccccc3)CC2)cc1)c1cc([N+](=O)[O-])ccc1Cl` [Example 184, N-[4-(4-Benzoylpiperazin-1-yl)phenyl]-(2-chloro-5-nitrophenyl)carboxamide] had an inhibition at 1 µM of 15%.

Turning to `O=C(Nc1ccc(-c2ccc(NC(=S)Nc3ccccc3)cc2)cc1)c1cc([N+](=O)[O-])ccc1Cl` [Example 252, N-[4-[4-(Phenylaminothiocarbonylamino)phenyl]phenyl]-(2-chloro-5-nitrophenyl)carboxamide], 1 µM produced 19.3% inhibition in the experiment on TNF-α production (RAW264.7, 15 h). For the compound `O=C(Nc1ccc(-c2ccc([N+](=O)[O-])cc2)cc1)c1cc([N+](=O)[O-])ccc1Cl` [Example 9, N-[4-(4-Nitrophenyl)phenyl)-(2-chloro-5-nitrophenyl)carboxamide], the activity at 0.1 µM in the experiment on Rat white adipocytes came to 116%. This compound had an inhibition at 1 µM in the experiment on TNF-α production (15 hr) of 34%. For `Cc1ccc2nc(NC(=O)c3cc([N+](=O)[O-])ccc3Cl)sc2c1` [Example 141, N-(6-Methybenzothiazol-2-yl)-(2-chloro-5-nitrophenyl)carboxamide], in the experiment on Rat white adipocytes, the “Rate of Differentiation (%)” value came to 133.2%. For the same compound, the “Inhibitory Activity (%)” value with TNF-α production (15 hr) amounted to 15.9%. Turning to `O=C(Nc1nc2ccc([N+](=O)[O-])cc2s1)c1cc([N+](=O)[O-])ccc1Cl` [Example 34, N-(6-Nitrobenzothiazol-2-yl)-(2-chloro-5-nitrophenyl)carboxamide], the activity at 0.1 µM in the experiment with Rat white adipocytes came out at 140%. The compound further had an inhibition at 1 µM in the experiment with TNF-α production (15 hr) of 15.2%. Regarding `O=C(Nc1nc(-c2ccc(Cl)c(Cl)c2)cs1)c1cc([N+](=O)[O-])ccc1Cl` [Example 43, N-[4-(3,4-Dichlorophenyl)thiazol-2-yl]-(2-chloro-5-nitrophenyl)carboxamide], the activity at 0.1 µM in the experiment on Rat white adipocytes was 118%. The same compound showed an inhibition at 1 µM in the experiment on TNF-α production (RAW264.7, 15 h) of 17.7%.

Broadly, the inhibition is the change of the read-out against control, counted positive when it falls.
